Values after ≈ are worked out from the molar mass of the structure shown. Read-outs that look alike come from different tables or passages of the source.

The subject of one data set is B/Lee. The experiment in a line: Antiviral plaque assay, B/Lee. The class given is cell-based. The settings on record: Influenza B virus, MDCK cells. As to the method:
(§1) The in vitro anti-influenza activities of COMPOUND A, COMPOUND B, COMPOUND C and amantadine were evaluated using a standard plaque assay such as described in Hayden et al., Antimicrob. Agents Chemother., vol. 17, pages 865-870, (1980), herein incorporated by reference. In this assay, influenza virus-infected Madin Darby canine kidney (MDCK) cells were untreated or treated with serial dilutions of each compound. The concentration of compound required to inhibit viral plaque formation by 50% (IC50) was determined from the linear regression line of the plot of compound concentration versus percent inhibition of plaque formation. In addition, the IC50 can be determined by the method of Reed and Muench, Am. J. Hyg, vol. 27, 493-497 (1938) which is herein incorporated by reference.

The next data set has as its system M2 ion channel. The settings on record: influenza A; cited from earlier work.
For a further data set, the system named is A/AA H2N2. The experiment in a line: microbe, parasite or virus in culture. Particulars: H2N2, MDCK.
The next data set concerns B/Maryland. The experiment in a line: Antiviral plaque assay, B/Maryland. The class given is cell-based. The settings on record: Influenza B virus, MDCK cells. As to the method:
as §1

The next data set deals with A/NWS H1N1. The experiment in a line: Antiviral plaque assay, A/NWS H1N1. Particulars: MDCK cells. As to the method: as §1
Another data set concerns A/AICHI H3N2. The data set can be described thus: Antiviral plaque assay, A/AICHI H3N2. The settings on record: MDCK cells. The protocol: as §1
The test system of data set [1] is influenza A/Kawasaki (A/KAW H1N1). The data set can be described thus: Antiviral plaque assay, A/KAW H1N1. The settings on record: MDCK cells. As to the method: as §1
The next data set has as its system A/FM/1/47 H1N1. The data set can be described thus: Antiviral plaque assay, A/FM/1/47 H1N1. The settings on record: MDCK cells. As to the method:
as §1

A further data set relates to B/GL. The data set can be described thus: Antiviral plaque assay, B/GL. The class given is cell-based. The settings on record: Influenza B virus, MDCK cells. The protocol:
as §1

A further data set concerns infectious virions. The arrangement: species or system influenza virus.
A short description of the next data set: in vitro. The settings on record: bovine, mdbk cells.
Another data set concerns BVDV. The data set can be described thus: microbe, parasite or virus in culture. The class given is cell-based, bovine diarrheal virus (BVDV). The settings on record: Bovine viral diarrhea virus isolates and strains, MDBK, in Bos taurus.
The mark [2] stands for this setting: read-out: IC50 (virus replication inhibited by 50%).

As for `NC12CC3CC(CC(C3)C1)C2` [Amantadine, amantadine, reference compound], the IC50 in the data set on B/Lee is > 10 µg/mL; with A/AA H2N2, 0.037 µg/mL (≈ 0.245 µM); with B/Maryland, > 10 µg/mL; in the data set on A/NWS H1N1, > 10 µg/mL; in the data set on A/AICHI H3N2 it was 0.076 µg/mL (≈ 0.502 µM); in data set [1], 0.036 µg/mL (≈ 0.238 µM). Moreover, the values for the IC50 with A/FM/1/47 H1N1 and in the data set on B/GL were 0.13 µg/mL (≈ 0.859 µM) and > 10 µg/mL, respectively. The “function of the M2 ion channel activity” value in the data set on M2 ion channel is “inhibiting the function of the M2 ion channel activity”.
Consider `COC(=O)[C@@]1(C)CCC[C@]2(C)c3cc(OC)ccc3C(=O)C[C@@H]12` [COMPOUND A], for which the “antiviral activity after pre-incubation with infectious virions” value in the data set on infectious virions is “inactive”. The IC50 in the data set on B/Lee is ~1.23 µg/mL (≈ 3.89 µM); in the data set with A/AA H2N2 it was < 0.032 µg/mL; in the data set with B/Maryland, ~2.7 µg/mL (≈ 8.53 µM); in the data set on A/NWS H1N1, > 10 µg/mL; in the data set on A/AICHI H3N2, ~10 µg/mL (≈ 31.6 µM); in the data set with BVDV (read-out: IC50), 13.5 µg/mL (≈ 42.6 µM). In addition, the IC50 with BVDV (setting [2]) was 3.56 µg/mL (≈ 11.3 µM); in the data set on BVDV (read-out: concentration inhibiting replication by 50%), 3.5 µg/mL (≈ 11.1 µM); in [1], < 0.032 µg/mL; in the data set on A/FM/1/47 H1N1, < 0.032 µg/mL; in the data set on B/GL, 5.65 µg/mL (≈ 17.9 µM). In the data set with HA of A/Kawasaki/86, the “effect on expression of HA on the infected cell surface (erythrocyte binding)” value is “no effect”. Further, the “low pH-induced fusion of MDCK cells with human erythrocytes” value in the data set on HA of A/Kawasaki/86 (pH 4.8) is recorded as “inhibition of the low pH-induced fusion”. Moreover, in the data set on HA of A/WSN/33, the “effect on fusion of human erythrocytes with A/WSN/33-infected MDCK cells” value is “no effect”. In addition, the CC50 (in general, the concentration that lowers cell viability or growth by half) in “in vitro” was 51.8 µg/mL (≈ 164 µM). The “susceptibility of A/WSN/33” value in the data set with influenza A/WSN/33 is on record as “naturally resistant”. The IC90 in the data set with BVDV (read-out: concentration inhibiting replication by 90%) worked out at 13.4 µg/mL (≈ 42.4 µM).
Turning to `O=C(NCC(c1ccccc1)c1ccncc1)Nc1ccccc1Cl` (centres unmarked) [COMPOUND B], the IC50 with B/Lee was ~1.08 µg/mL (≈ 3.07 µM); with A/AA H2N2, 0.15 µg/mL (≈ 0.426 µM); with B/Maryland, ~2.23 µg/mL (≈ 6.34 µM); in the data set with A/NWS H1N1 it was ~9.59 µg/mL (≈ 27.3 µM); with A/AICHI H3N2, ~7.26 µg/mL (≈ 20.6 µM); in data set [1], 0.024 µg/mL (≈ 0.0682 µM). Also, the figures for the IC50 in the data set on A/FM/1/47 H1N1 and in the data set on B/GL were 0.18 µg/mL (≈ 0.512 µM) and 2.83 µg/mL (≈ 8.04 µM), respectively.
Turning to `O=C(O)CCC1(c2ccccc2)CCCCC1` [COMPOUND C], the IC50 with B/Lee is > 10 µg/mL; with A/AA H2N2 it was 0.069 µg/mL (≈ 0.297 µM); in the data set with B/Maryland, 6.34 µg/mL (≈ 27.3 µM); in the data set with A/NWS H1N1 it was > 10 µg/mL; with A/AICHI H3N2, ~10 µg/mL (≈ 43 µM); in data set [1] it was 0.07 µg/mL (≈ 0.301 µM). For the same molecule, the results for the IC50 with A/FM/1/47 H1N1 and with B/GL were 0.15 µg/mL (≈ 0.646 µM) and > 10 µg/mL, respectively.
Consider `COC(=O)C1(C)CCCC2(C)c3ccc(O)cc3C(=O)CC12` (centres unmarked) [Compound I], for which it took 32 µg/mL (≈ 106 µM) to reach half-maximal cytotoxicity in “in vitro” (CC50). The figures for the IC50 in the data set on BVDV (read-out: IC50) and in the data set with BVDV (setting [2]) were 16 µg/mL (≈ 53 µM) and 4.94 µg/mL (≈ 16.3 µM), respectively.
`COC(=O)[C@@]1(C)CCC[C@@]2(C)C1=CC(=NO)c1ccc(OC)cc12` [J] returned a CC50 in the data set “in vitro” of 30.8 µg/mL (≈ 93.4 µM). Also, the IC50 with BVDV (read-out: IC50) came to 8.9 µg/mL (≈ 27 µM); with BVDV (setting [2]), 5.25 µg/mL (≈ 15.9 µM).
As for `COC(=O)C1(C)CCCC2(C)c3ccccc3C(=O)CC12` (centres unmarked) [K], in “in vitro”, the CC50 is > 100 µg/mL. The figures for the IC50 in the data set on BVDV (read-out: IC50) and in the data set with BVDV (setting [2]) were 51 µg/mL (≈ 178 µM) and 15 µg/mL (≈ 52.3 µM), respectively.
Take `CC(N)C12CC3CC(CC(C3)C1)C2` (centres unmarked) [rimantadine]: the “function of the M2 ion channel activity” value in the data set with M2 ion channel is “inhibiting the function of the M2 ion channel activity”.

(Values after US6037348A (priority 1997, dated 2000).)
